The values below come from PubChem BioAssay (NCI).

Among the test systems are OVCAR-4 ovarian; OVCAR-8 ovarian; NCI-H522 lung; SF-539 CNS; NCI-H226 lung; A498 renal; SK-OV-3 ovarian; DU-145 prostate; MDA-MB-435; BT-549 breast.
Holding throughout (assay): NCI-60 cell line screen, 48 h

“And” between values parts separate entries of the source, which are not always exact repeats. Identical values can stand only once.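 Protocol summary: plate cells (96-well), add compound at 5 concentrations, incubate 48 h, interpolate endpoints linearly. GI50 is the concentration that inhibits growth by half. TGI denotes the concentration required for complete inhibition of growth.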 Some results are limits rather than exact numbers.

As for `O=C1CNN=C(Cn2nc(-c3ccccc3)c3ccccc3c2=O)N1`, the TGI in the assay on OVCAR-4 ovarian, with OVCAR-8 ovarian, with NCI-H522 lung, in the assay with SF-539 CNS, in the assay on NCI-H226 lung and in the assay with A498 renal was > 100 µM in each case. Moreover, in the assay on SK-OV-3 ovarian, the TGI is > 100 µM.

Turning to `O=C(/C=C(\[O-])c1ccccc1)CCCCCCC(=O)/C=C(\[O-])c1ccccc1.O=C(/C=C(\[O-])c1ccccc1)CCCCCCC(=O)/C=C(\[O-])c1ccccc1.O=C(/C=C(\[O-])c1ccccc1)CCCCCCC(=O)/C=C(\[O-])c1ccccc1.[Nd+3].[Nd+3]`, the GI50 in the assay on OVCAR-4 ovarian, in the assay with OVCAR-8 ovarian, with NCI-H522 lung, in the assay with SF-539 CNS, in the assay with NCI-H226 lung and in the assay on A498 renal was > 50 µM in each case. In addition, the GI50 with SK-OV-3 ovarian was > 50 µM. The TGI in the assay on OVCAR-4 ovarian, in the assay on OVCAR-8 ovarian, with NCI-H522 lung, in the assay with SF-539 CNS, in the assay with NCI-H226 lung and with A498 renal was > 50 µM throughout. Moreover, in the assay on SK-OV-3 ovarian, the TGI is > 50 µM.

Consider `CN(C)c1ccc(C2CC(C)(O)Oc3cc4c(cc32)OCO4)cc1` (stereo unspecified), for which the TGI with OVCAR-8 ovarian was 94.7 µM; in the assay on DU-145 prostate, > 100 µM; with MDA-MB-435, 74.1 µM; in the assay with NCI-H522 lung, > 100 µM; in the assay with SF-539 CNS, > 100 µM; in the assay with NCI-H226 lung, > 100 µM. Besides, in the assay with SK-OV-3 ovarian, the TGI is > 100 µM.

Take `CC1=CCN(c2ccccn2)OC1c1ccccc1` (stereo unspecified): the TGI in the assay with OVCAR-4 ovarian, in the assay on OVCAR-8 ovarian, in the assay with NCI-H522 lung, with SF-539 CNS, in the assay with NCI-H226 lung and with SK-OV-3 ovarian was > 100 µM in each case.

`CC(=O)OCC1OC(n2c(=S)n(-c3ccccc3)c(=O)c3cc(Br)cc(Br)c32)C(OC(C)=O)C(OC(C)=O)C1OC(C)=O` (stereo unspecified): the TGI with OVCAR-8 ovarian is > 100 µM; in the assay on NCI-H522 lung, > 100 µM and 84.7 µM; in the assay with SF-539 CNS it was > 100 µM; with NCI-H226 lung, > 100 µM; in the assay with A498 renal it was > 100 µM; with SK-OV-3 ovarian, > 100 µM. Also, the GI50 is > 100 µM and 28.6 µM with NCI-H522 lung; 43.9 µM and > 100 µM with SF-539 CNS; 45.1 µM and > 100 µM in the assay on SK-OV-3 ovarian.

`CC1CC(C)C(C(O)CC2CC(=O)N(c3ccccc3)C(=O)C2)C(O)C1` (stereo unspecified): the TGI in the assay on OVCAR-4 ovarian, in the assay with OVCAR-8 ovarian, with NCI-H522 lung, with SF-539 CNS, with NCI-H226 lung and with A498 renal was > 100 µM in each case. In addition, the TGI in the assay with SK-OV-3 ovarian was > 100 µM.

On to `O=C(C(=O)c1cc(Br)ccc1O)c1cc(Br)ccc1O`, for which the GI50 with OVCAR-4 ovarian was 6.04 µM; in the assay with OVCAR-8 ovarian, 7.46 µM; in the assay on DU-145 prostate, 3.66 µM; in the assay on MDA-MB-435 it was 2.84 µM; in the assay with NCI-H522 lung, 2.94 µM; in the assay on SF-539 CNS, 4.01 µM. In the assay on SK-OV-3 ovarian, the GI50 is 4.42 µM. Moreover, the TGI in the assay with OVCAR-4 ovarian is > 100 µM; in the assay with OVCAR-8 ovarian, 40.5 µM; in the assay with DU-145 prostate, 18.5 µM; with MDA-MB-435 it was 9.25 µM; in the assay with NCI-H522 lung, 9.3 µM; in the assay with SF-539 CNS it was 18.6 µM. In the assay with SK-OV-3 ovarian, this molecule gave a TGI of 30.2 µM.

Regarding `C/C(CC(=O)Nc1cccc([N+](=O)[O-])c1)=N\NC(=O)C[n+]1ccccc1`, the TGI in the assay on OVCAR-8 ovarian, in the assay on NCI-H522 lung, in the assay on SF-539 CNS, in the assay with NCI-H226 lung and with SK-OV-3 ovarian was > 100 µM throughout.

With `COCC1N=C(c2cc(OC)c(OC)c(OC)c2-c2cc3c(cc2[C@H](C)O)OCO3)O[C@H]1c1ccccc1` (stereo partly specified), the TGI in the assay with OVCAR-4 ovarian, in the assay on OVCAR-8 ovarian, with SF-539 CNS, in the assay with NCI-H226 lung and in the assay with SK-OV-3 ovarian was > 100 µM each time.

With `Nc1ccc(C(=O)/C=C/c2ccccc2O)cc1`, the TGI with OVCAR-4 ovarian, in the assay with OVCAR-8 ovarian, in the assay on NCI-H522 lung, with SF-539 CNS, in the assay with NCI-H226 lung and in the assay on A498 renal was > 100 µM throughout. The TGI in the assay on SK-OV-3 ovarian is > 100 µM.

Turning to `CCOc1ccc(Nc2nc(-c3c(C)nc4ncccn34)cs2)cc1`, the GI50 in the assay with BT-549 breast is 0.0268 µM; in the assay on OVCAR-8 ovarian, 0.0401 µM; in the assay with DU-145 prostate, 0.0431 µM; in the assay with NCI-H522 lung, < 0.01 µM; in the assay with SF-539 CNS, 0.0227 µM; with NCI-H226 lung it was 2.81 µM. Further, the GI50 in the assay on A498 renal was < 0.01 µM; in the assay with SK-OV-3 ovarian, 0.017 µM. In addition, the TGI with BT-549 breast came out at 14.9 µM; with OVCAR-8 ovarian, 15.9 µM; with DU-145 prostate, 19.2 µM; in the assay on NCI-H522 lung, 1.57 µM; in the assay with SF-539 CNS it was 0.0822 µM; with NCI-H226 lung it was 22.6 µM. Further, the TGI in the assay with A498 renal amounted to 0.0678 µM; in the assay on SK-OV-3 ovarian it was 5.48 µM.

As to `COc1ccc(-c2cc(-c3ccccc3)nc(NCCNc3ccnc4cc(Cl)ccc34)n2)cc1`, the GI50 is 1.93 µM with OVCAR-4 ovarian; 1.77 µM with DU-145 prostate; 1.47 µM in the assay on MDA-MB-435; 1.87 µM in the assay on NCI-H522 lung; 1.86 µM in the assay on SF-539 CNS; 1.96 µM with NCI-H226 lung. Moreover, the GI50 is 1.63 µM in the assay with A498 renal and 1.78 µM in the assay on SK-OV-3 ovarian. For the same molecule, the TGI with OVCAR-4 ovarian came to 3.71 µM; in the assay with DU-145 prostate it was 3.28 µM; in the assay with MDA-MB-435 it was 3.01 µM; in the assay on NCI-H522 lung, 3.8 µM; in the assay on SF-539 CNS, 3.33 µM; in the assay with NCI-H226 lung, 4.56 µM. In addition, the TGI came out at 3.16 µM in the assay on A498 renal and 3.34 µM with SK-OV-3 ovarian.

Consider `COc1cc(CCc2ccc(OC(C)=O)cc2)cc(OC)c1OC`, for which the TGI in the assay with OVCAR-4 ovarian, in the assay with OVCAR-8 ovarian, with NCI-H522 lung, with SF-539 CNS, with NCI-H226 lung and with A498 renal was > 100 µM throughout.

For the molecule `CN(C)c1ccc(O[Si](Oc2ccc(N(C)C)cc2)(Oc2ccc(N(C)C)cc2)Oc2ccc(N(C)C)cc2)cc1`, the TGI in the assay on OVCAR-4 ovarian, with OVCAR-8 ovarian, in the assay on NCI-H522 lung, in the assay with SF-539 CNS, in the assay with NCI-H226 lung and in the assay with A498 renal was > 100 µM throughout. Moreover, the TGI in the assay with SK-OV-3 ovarian is > 100 µM.
